Patent publication US20230242513A1, “NOVEL HETEROARYL-SUBSTITUTED PYRAZINE DERIVATIVES AS PESTICIDES” (Bayer Animal Health GmbH, priority 2020, published 2023)

Tests used:
Type in all cases: in vivo
[1] = tested on: Diabrotica balteata (banded cucumber beetle larvae); assay: Diabrotica balteata spray test; conditions: 168 h, wheat seeds, after 7 days, read-out: efficacy (seedlings grown up like untreated, uninfected control); for pest or weed control at 32 µg/disc, 100 g/ha: application rate 100 g/ha (=32 μg/well); for pest or weed control at 160 µg/disc, 500 g/ha: application rate 500 g/ha (=160 μg/well)
Description: Diabrotica balteata—Spray Test
(§1) Solvent: 78.0 parts by weight of acetone • • 1.5 parts by weight of dimethylformamide
(§2) Emulsifier: alkylarylpolyglycol ether
(§3) To produce a suitable preparation of active compound, 1 part by weight of active compound is mixed with the stated amount of solvent, and the concentrate is diluted with water, containing an emulsifier concentration of 1000 ppm, to the desired concentration. Further test concentrations are prepared by dilution with emulsifier containing water.
Soaked wheat seeds (Triticum aestivum) are placed in a multiple well plate filled with agar and some water and are incubated for 1 day to germinate (5 seeds per well). The germinated wheat seeds are sprayed with a test solution containing the desired concentration of the active ingredient. Afterwards each unit is infected with 10-20 larvae of the banded cucumber beetle (Diabrotica balteata).
After 7 days efficacy in % is determined. 100% means all the seedlings have grown up like in the untreated, uninfected control; 0% means none of the seedlings have grown.

[2] = tested on: Spodoptera frugiperda (fall armyworm larvae); assay: Spodoptera frugiperda spray test; conditions: in Zea mays, 168 h
Description: Spodoptera frugiperda—Spray Test
Solvent: 78.0 parts by weight acetone • 1.5 parts by weight dimethylformamide
as §2
as §3, with “solvents” for “solvent,”, “and” for “and the concentrate”
Maize (Zea mays) leaf sections are sprayed with a preparation of the active ingredient of the desired concentration. Once dry, the leaf sections are infested with fall armyworm larvae (Spodoptera frugiperda).
After 7 days mortality in % is determined. 100% means all caterpillars have been killed and 0% means none of the caterpillars have been killed.

[3] = tested on: Nezara viridula (southern green stink bug larvae); assay: Nezara viridula spray test; conditions: 96 h, application rate 500 g/ha, barley plants, after 4 days
Description: Nezara viridula—Spray Test
as §1, §2, §3
Barley plants (Hordeum vulgare) are sprayed with a test solution containing the desired concentration of the active ingredient and are infested with larvae of the southern green stink bug (Nezara viridula).
After 4 days mortality in % is determined. 100% means all the stink bugs have been killed; 0% means none of the stink bugs have been killed.

[4] = tested on: Nilaparvata lugens (brown planthopper); assay: Nilaparvata lugens spray test; conditions: 96 h, application rate 500 g/ha, rice plants, after 4 days
Description: Nilaparvata lugens—Spray Test
as §1, §2
as §3, with “solvents” for “solvent,”, “and” for “and the concentrate”
Rice plants (Oryza sativa) are sprayed with a preparation of the active ingredient of the desired concentration and the plants are infested with the brown planthopper (Nilaparvata lugens).
After 4 days mortality in % is determined. 100% means all planthoppers have been killed and 0% means none of the planthoppers have been killed.

[5] = tested on: Rhipicephalus (Boophilus) microplus larvae (strain Parkhurst, resistant against synthetic pyrethroids); assay: Rhipicephalus (Boophilus) microplus in-vitro contact test, larval cattle tick; conditions: application rate 5 μg/cm^2 (=500 g/ha); after 48 hours
Description: Rhipicephalus (Boophilus) microplus—In-Vitro Contact Tests Larval Cattle Tick (Strain Parkhurst, Resistant Against Synthetic Pyrethroids)
(§4) 9 mg compound is solved in 1 mL acetone and diluted with acetone to the desired concentration. 250 μL of the test solution is filled in 25 mL glass test tubes and homogeneously distributed on the inner walls by rotation and tilting on a shaking device (2 h at 30 rpm). With a compound concentration of 900 ppm, an inner surface of 44.7 cm^2 and a homogeneous distribution, a dose of 5 pg/cm^2 is achieved.
After the solvent has evaporated, each test tube is filled with 20-50 cattle tick larvae (Rhipicephalus microplus), closed with a perforated lid and incubated in a horizontal position at 85% relative humidity and 27° C. in an incubator. After 48 hours efficacy is determined. The larvae are patted on the ground of the tubes and negative geotactic behavior is recorded.
An efficacy of 100% means all larvae are dead or moribund; 0% means no larvae are dead or moribund.

[6] = tested on: Rhipicephalus sanguineus (adult brown dog ticks); assay: Rhipicephalus sanguineus in-vitro contact test, adult brown dog ticks; conditions: after 48 hours
Description: Rhipicephalus sanguineus—In-Vitro Contact Tests with Adult Brown Dog Ticks
as §4, with “μg/cm^2” for “pg/cm^2”
(§5) After the solvent has evaporated, each test tube is filled with 5-10 adult brown dog ticks (Rhipicephalus sanguineus), closed with a perforated lid and incubated in a lying position at room temperature and relative humidity. After 48 hours efficacy is determined. The ticks are patted on the ground of the tubes and are incubated on a heating plate at 45-50° C. for at most 5 minutes. Immotile or uncoordinated moving ticks, which are not able to escape the heat by climbing upwards, are marked as dead or moribund.
An efficacy of 100% means all ticks are dead or moribund; 0% means no ticks are dead or moribund.

[7] = tested on: Myzus persicae (green peach aphid); assay: Myzus persicae oral test; conditions: 120 h, application rate 20 ppm, after 5 days
Description: Solvent: 100 parts by weight acetone
To produce a suitable preparation of active compound, 1 part by weight of active compound is mixed with the stated amount of solvent, and the concentrate is diluted with water to the desired concentration.
50 μL compound solution is filled in microtiter plates and 150 μL IPL41 insect medium (33%+15% sugar) is added to obtain a total volume of 200 μL per well. Afterwards the plates are sealed with parafilm through which a mixed population of the green peach aphid (Myzus persicae) can suck on the compound preparation.
After 5 days mortality in % is determined. 100% means all aphids have been killed and 0% means none of the aphids have been killed.

[8] = tested on: Ctenocephalides felis (adult cat fleas); assay: Ctenocephalides felis in-vitro contact test, adult cat flea; conditions: after 48 hours
Description: Ctenocephalides felis—In-Vitro Contact Tests Adult Cat Flea
as §4, with “μg/cm^2” for “pg/cm^2”
as §5, with “cat fleas (Ctenocephalides felis),” for “brown dog ticks (Rhipicephalus sanguineus),”, “fleas” for “ticks”, “fleas,” for “ticks,”
An efficacy of 100% means all fleas are dead or moribund; 0% means no fleas are dead or moribund.

[9] = application rate 5 μg/cm^2 (=500 g/ha)
[10] = application rate 1 μg/cm^2 (=100 g/ha)

Structure (SMILES): Cc1ncn(-c2nccnc2C(C)NC(=O)c2cc(Cl)cc(OC(F)(F)F)c2)n1 (racemic) [Example I-9, (rac)-3-Chloro-N-{1-[3-(3-methyl-1H-1,2,4-triazol-1-yl)pyrazin-2-yl]ethyl}-5-(trifluoromethoxy)benzamide]
- pest or weed control at 32 µg/disc, 100 g/ha [1]: 100%
- mortality at 100 g/ha [2]: 100%

Structure (SMILES): CC(NC(=O)c1cc(Cl)cc(S(C)(=O)=O)c1)c1nccnc1-n1cncn1 (racemic) [Example I-6, (rac)-3-Chloro-5-(methanesulfonyl)-N-{1-[3-(1H-1,2,4-triazol-1-yl)pyrazin-2-yl]ethyl}benzamide]
- pest or weed control at 32 µg/disc, 100 g/ha [1]: 100%
- mortality at 500 g/ha [3]: 90%
- mortality at 500 g/ha [4]: 100%

Structure (SMILES): CC(NC(=O)c1cc(Br)cc(Br)c1)c1nccnc1-n1cncn1 (racemic) [Example I-7, (rac)-3,5-Dibromo-N-{1-[3-(1H-1,2,4-triazol-1-yl)pyrazin-2-yl]ethyl}benzamide]
- pest or weed control at 32 µg/disc, 100 g/ha [1]: 100%

Structure (SMILES): CC(NC(=O)c1cc(C(F)(F)F)cc(C(F)(F)F)c1)c1nccnc1-n1cnc(C#N)n1 (racemic) [Example I-27, (rac)-N-{1-[3-(3-Cyano-1H-1,2,4-triazol-1-yl)pyrazin-2-yl]ethyl}-3,5-bis(trifluoromethyl)benzamide]
- efficacy (larvae dead or moribund) [5]: 100%

Structure (SMILES): Cc1ncn(-c2nccnc2C(C)NC(=O)c2cc(Cl)cc(S(C)(=O)=O)c2)n1 (racemic) [Example I-4, (rac)-3-Chloro-5-(methanesulfonyl)-N-{1-[3-(3-methyl-1H-1,2,4-triazol-1-yl)pyrazin-2-yl]ethyl}benzamide]
- pest or weed control at 32 µg/disc, 100 g/ha [1]: 100%
- mortality at 500 g/ha [3]: 70%

Structure (SMILES): CC(NC(=O)c1cc(Cl)cc(S(C)(=O)=O)c1)c1nccnc1-n1nccn1 (racemic) [Example I-1, (rac)-3-Chloro-5-(methylsulfonyl)-N-{1-[3-(2H-1,2,3-triazol-2-yl)pyrazin-2-yl]ethyl}benzamide]
- pest or weed control at 32 µg/disc, 100 g/ha [1]: 100%
- pest or weed control at 160 µg/disc, 500 g/ha [1]: 100%
- efficacy (ticks dead or moribund) [6, 9]: 100%
- efficacy (larvae dead or moribund) [5]: 90%
- mortality at 20 ppm [7]: 100%
- mortality at 500 g/ha [3]: 100%

Structure (SMILES): CCOC(=O)Cn1cc(-c2nccnc2C(C)NC(=O)c2cc(C(F)(F)F)cc(C(F)(F)F)c2)nn1 (racemic) [Example I-28, (rac)-Ethyl [4-(3-{1-[3,5-bis(trifluoromethyl)benzamido]ethyl}pyrazin-2-yl)-1H-1,2,3-triazol-1-yl]acetate]
- pest or weed control at 160 µg/disc, 500 g/ha [1]: 100%
- efficacy (fleas dead or moribund) [8, 9]: 100%
- efficacy (larvae dead or moribund) [5]: 100%

Structure (SMILES): CC(NC(=O)c1cc(Cl)cc(OC(F)(F)F)c1)c1nccnc1-c1cn(C)nn1 (racemic) [Example I-11, (rac)-3-Chloro-N-{1-[3-(1-methyl-1H-1,2,3-triazol-4-yl)pyrazin-2-yl]ethyl}-5-(trifluoromethoxy)benzamide]
- pest or weed control at 32 µg/disc, 100 g/ha [1]: 100%

Structure (SMILES): CCN(C)C(=O)c1ncn(-c2nccnc2C(C)NC(=O)c2cc(Cl)cc(S(C)(=O)=O)c2)n1 (racemic) [Example I-25, (rac)-1-(3-{1-[3-Chloro-5-(methanesulfonyl)benzamido]ethyl}pyrazin-2-yl)-N-ethyl-N-methyl-1H-1,2,4-triazole-3-carboxamide]
- mortality at 100 g/ha [2]: 100%

Structure (SMILES): CC(NC(=O)c1cc(C(F)(F)F)cc(C(F)(F)F)c1)c1nccnc1-n1cncn1 (racemic) [Example I-5, (rac)-N-(1-[3-(1H-1,2,4-Triazol-1-yl)pyrazin-2-yl]ethyl)-3,5-bis(trifluoromethyl)benzamide]
- pest or weed control at 32 µg/disc, 100 g/ha [1]: 100%
- mortality at 20 g/ha [2]: 83%
- mortality at 500 g/ha [4]: 100%

Structure (SMILES): CC(NC(=O)c1cc(C(F)(F)F)cc(C(F)(F)F)c1)c1nccnc1-c1cn(-c2ccn(C)n2)nn1 (racemic) [Example I-12, (rac)-N-1-{3-[1-(1-Methyl-1H-pyrazol-3-yl)-1H-1,2,3-triazol-4-yl]pyrazin-2-yl}ethyl]-3,5-bis(trifluoromethyl)benzamide]
- mortality at 100 g/ha [2]: 100%
- efficacy (larvae dead or moribund) [5]: 90%

Structure (SMILES): CC(NC(=O)c1cc(C(F)(F)F)cc(C(F)(F)F)c1)c1nccnc1-c1cn(C)nn1 (racemic) [Example I-10, (rac)-N-{1-[3-(1-Methyl-1H-1,2,3-triazol-4-yl)pyrazin-2-yl]ethyl}-3,5-bis(trifluoromethyl)benz amide]
- pest or weed control at 32 µg/disc, 100 g/ha [1]: 100%
- efficacy (larvae dead or moribund) [5]: 100%

Structure (SMILES): Cc1ncn(-c2nccnc2C(C)NC(=O)c2cc(Br)cc(Br)c2)n1 (racemic) [Example I-2, 3,5-Dibromo-N-{(rac)-1-[3-(3-methyl-1H-1,2,4-triazol-1-yl)pyrazin-2-yl]ethyl}benzamide]
- pest or weed control at 32 µg/disc, 100 g/ha [1]: 100%

Structure (SMILES): CC(NC(=O)c1cc(Br)cc(Br)c1)c1nccnc1-c1cn(C)nn1 (racemic) [Example I-15, (rac)-3,5-Dibromo-N-{1-[3-(1-methyl-1H-1,2,3-triazol-4-yl)pyrazin-2-yl]ethyl}benzamide]
- pest or weed control at 32 µg/disc, 100 g/ha [1]: 100%

Structure (SMILES): Cc1ncn(-c2nccnc2C(C)NC(=O)c2cc(C(F)(F)F)cc(C(F)(F)F)c2)n1 (racemic) [Example I-3, (rac)-N-{1-[3-(3-Methyl-1H-1,2,4-triazol-1-yl)pyrazin-2-yl]ethyl}-3,5-bis(trifluoromethyl)benzamide]
- mortality at 100 g/ha [2]: 100%
- mortality at 500 g/ha [4]: 90%

Structure (SMILES): CCN(C)C(=O)c1ncn(-c2nccnc2C(C)NC(=O)c2cc(C(F)(F)F)cc(C(F)(F)F)c2)n1 (racemic) [Example I-21, (rac)-1-(3-{1-[3,5-Bis(trifluoromethyl)benzamido]ethyl}pyrazin-2-yl)-N-ethyl-N-methyl-1H-1,2,4-triazole-3-carboxamide]
- efficacy (fleas dead or moribund) [8, 10]: 80%
- efficacy (ticks dead or moribund) [6, 10]: 80%
- efficacy (larvae dead or moribund) [5]: 100%
